# Data as given in PubChem BioAssay AID1963870 (Molecular Pharmacology Branch, DTP, NCI, 2024).
# pIC50: −log10 of the molar value.
# Test system: 292921-168-R-J2-PDC KRAS tumor spheroid viability
# Experiment: Anticancer human tumor 292921-168-R-J2-PDC patient-derived pancreatic carcinoma cell line growth inhibition [KRAS2]
# Conditions: spheroids with HUVEC and MSC; for pIC50: curve of first compound; for viability, T/C: stronger effect = lower value
# Method in brief: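 KRAS-mutant tumor cells were grown as spheroids with HUVEC endothelial cells and human MSCs as stroma. Targeted agents were tested alone and with KRAS pathway inhibitors. Doses started at or near clinical Cmax, or 10 microM, descending half-log.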
# [1] = second compound 0.1 µM, first compound 0.0316 µM
# [2] = second compound 0.1 µM, first compound 0.1 µM
# [3] = second compound 0.1 µM, first compound 0.316 µM
# [4] = second compound 0.1 µM, first compound 1 µM
# [5] = second compound 0.1 µM, first compound 3.16 µM
# [6] = second compound 0.1 µM, first compound 10 µM
# [7] = second compound 0.316 µM, first compound 0.0316 µM
# [8] = second compound 0.316 µM, first compound 0.1 µM
# [9] = second compound 0.316 µM, first compound 0.316 µM
# [10] = second compound 0.316 µM, first compound 1 µM
# [11] = second compound 0.316 µM, first compound 3.16 µM
# [12] = second compound 0.316 µM, first compound 10 µM
# [13] = second compound 1 µM, first compound 0.0316 µM
# [14] = second compound 1 µM, first compound 0.1 µM
# [15] = second compound 1 µM, first compound 0.316 µM
# [16] = second compound 1 µM, first compound 1 µM
# [17] = second compound 1 µM, first compound 3.16 µM
# [18] = second compound 1 µM, first compound 10 µM
# [19] = second compound 3.16 µM, first compound 0.0316 µM
# [20] = second compound 3.16 µM, first compound 0.1 µM
# [21] = second compound 3.16 µM, first compound 0.316 µM
# [22] = second compound 3.16 µM, first compound 1 µM
# [23] = second compound 3.16 µM, first compound 3.16 µM
# [24] = second compound 3.16 µM, first compound 10 µM
# [25] = second compound 0.1 µM, first compound 0.01 µM
# [26] = second compound 0.316 µM, first compound 0.01 µM
# [27] = second compound 1 µM, first compound 0.01 µM
# [28] = second compound 3.16 µM, first compound 0.01 µM
# [29] = second compound 10 µM, first compound 0.01 µM
# [30] = second compound 10 µM, first compound 0.0316 µM
# [31] = second compound 10 µM, first compound 0.1 µM
# [32] = second compound 10 µM, first compound 0.316 µM
# [33] = second compound 10 µM, first compound 1 µM
# [34] = second compound 10 µM, first compound 3.16 µM
# 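Further: drug exposure lasted seven days after spheroids formed for three days.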
# 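Wherever viability, T/C is given: percent of DMSO vehicle control viability which is 100%.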
compound,measurement,setting,value
COC(=O)c1ccc2c(C(=Nc3ccc(N(C)C(=O)CN4CCN(C)CC4)cc3)c3ccccc3)c(O)[nH]c2c1 + C=CC(=O)N1CCN(c2nc(OCC3CCCN3C)nc3c2CCN(c2cccc4cccc(C)c24)C3)CC1CC#N,pIC50,second compound 0.0316 µM,> 7.50
same,pIC50,second compound 0.1 µM,> 7.50
same,pIC50,second compound 0.316 µM,> 7.50
same,pIC50,second compound 1 µM,> 7.50
same,pIC50,second compound 3.16 µM,> 7.50
same,"viability, T/C","second compound 0.0316 µM, first compound 0.0316 µM",33%
same,"viability, T/C","second compound 0.0316 µM, first compound 0.1 µM",26.1%
same,"viability, T/C","second compound 0.0316 µM, first compound 0.316 µM",16.8%
same,"viability, T/C","second compound 0.0316 µM, first compound 1 µM",10.2%
same,"viability, T/C","second compound 0.0316 µM, first compound 3.16 µM",3.16%
same,"viability, T/C","second compound 0.0316 µM, first compound 10 µM",0.05%
same,"viability, T/C",[1],26.5%
same,"viability, T/C",[2],22.9%
same,"viability, T/C",[3],15.5%
same,"viability, T/C",[4],9.38%
same,"viability, T/C",[5],5.32%
same,"viability, T/C",[6],0.11%
same,"viability, T/C",[7],23.6%
same,"viability, T/C",[8],19.6%
same,"viability, T/C",[9],13.4%
same,"viability, T/C",[10],7.92%
same,"viability, T/C",[11],2.44%
same,"viability, T/C",[12],0.07%
same,"viability, T/C",[13],16.7%
same,"viability, T/C",[14],16.4%
same,"viability, T/C",[15],9.48%
same,"viability, T/C",[16],6.16%
same,"viability, T/C",[17],0.43%
same,"viability, T/C",[18],0.03%
same,"viability, T/C",[19],0.16%
same,"viability, T/C",[20],0.08%
same,"viability, T/C",[21],0.07%
same,"viability, T/C",[22],0.05%
same,"viability, T/C",[23],0.04%
same,"viability, T/C",[24],0.05%
CC(=O)OC12COC1CC(O)C1(C)C(=O)C(O)C3=C(C)C(OC(=O)C(O)C(NC(=O)OC(C)(C)C)c4ccccc4)CC(O)(C(OC(=O)c4ccccc4)C21)C3(C)C (configuration not stated) + CNCc1ccccc1-c1csc(C(C)Nc2nc(C)nc3cc(OC)c(OC)cc23)c1,pIC50,second compound 0.1 µM,> 8.00
same,pIC50,second compound 0.316 µM,> 8.00
same,pIC50,second compound 1 µM,> 8.00
same,pIC50,second compound 3.16 µM,> 8.00
same,pIC50,second compound 10 µM,> 8.00
same,"viability, T/C",[25],13.9%
same,"viability, T/C",[1],15.9%
same,"viability, T/C",[2],13.8%
same,"viability, T/C",[3],14.6%
same,"viability, T/C",[4],17.2%
same,"viability, T/C",[5],18.1%
same,"viability, T/C",[26],15.8%
same,"viability, T/C",[7],14.4%
same,"viability, T/C",[8],13%
same,"viability, T/C",[9],13%
same,"viability, T/C",[10],15.7%
same,"viability, T/C",[11],17.5%
same,"viability, T/C",[27],16.5%
same,"viability, T/C",[13],15%
same,"viability, T/C",[14],11.5%
same,"viability, T/C",[15],12.3%
same,"viability, T/C",[16],17.4%
same,"viability, T/C",[17],22.8%
same,"viability, T/C",[28],0.1%
same,"viability, T/C",[19],16.1%
same,"viability, T/C",[20],0.07%
same,"viability, T/C",[21],0.03%
same,"viability, T/C",[22],0.08%
same,"viability, T/C",[23],19.4%
same,"viability, T/C",[29],0.14%
same,"viability, T/C",[30],0.09%
same,"viability, T/C",[31],0.06%
same,"viability, T/C",[32],0.04%
same,"viability, T/C",[33],0.08%
same,"viability, T/C",[34],0.17%
COc1cc2nc(C)nc(NC(C)c3cc(N)cc(C(F)(F)F)c3)c2cc1OC1CCOC1 (configuration not stated),IC50,"compound alone, run of 09/02/2021",4.36 µM [middle of 5 runs]
CC(C)n1nc(-c2ccc3oc(N)nc3c2)c2c(N)ncnc21,"viability, T/C",compound 0.001 µM,61.9% [middle of 5 runs]
same,"viability, T/C",compound 0.00316 µM,48.2% [middle of 5 runs]
same,"viability, T/C",compound 0.01 µM,35.1% [middle of 5 runs]
same,"viability, T/C",compound 0.0316 µM,27.3% [middle of 5 runs]
same,"viability, T/C",compound 0.1 µM,22.6% [middle of 5 runs]
same,IC50,curve of compound,2.46 nM [middle of 5 runs]
CN(C)C/C=C/C(=O)Nc1cc2c(Nc3ccc(F)c(Cl)c3)ncnc2cc1O[C@H]1CCOC1 + CC1OCC2(CCN(c3cnc(Sc4ccnc(N)c4Cl)c(N)n3)CC2)C1N,pIC50,second compound 0.1 µM,< 7.00
same,pIC50,second compound 0.316 µM,9.05
same,pIC50,second compound 1 µM,< 7.00
same,pIC50,second compound 3.16 µM,> 9.50
same,pIC50,second compound 10 µM,< 7.00
same,"viability, T/C","second compound 0.1 µM, first compound 0.000316 µM",82.2%
same,"viability, T/C","second compound 0.1 µM, first compound 0.001 µM",73.3%
same,"viability, T/C","second compound 0.1 µM, first compound 0.00316 µM",60.9%
same,"viability, T/C",[25],64.3%
same,"viability, T/C",[1],57.5%
same,"viability, T/C",[2],57.4%
same,"viability, T/C","second compound 0.316 µM, first compound 0.000316 µM",53.5%
same,"viability, T/C","second compound 0.316 µM, first compound 0.001 µM",48.3%
same,"viability, T/C","second compound 0.316 µM, first compound 0.00316 µM",46.9%
same,"viability, T/C",[26],45.9%
same,"viability, T/C",[7],52.3%
same,"viability, T/C",[8],46.1%
same,"viability, T/C","second compound 1 µM, first compound 0.000316 µM",92%
same,"viability, T/C","second compound 1 µM, first compound 0.001 µM",78%
same,"viability, T/C","second compound 1 µM, first compound 0.00316 µM",94%
same,"viability, T/C",[27],88.6%
same,"viability, T/C",[13],93%
same,"viability, T/C",[14],79.8%
same,"viability, T/C","second compound 3.16 µM, first compound 0.000316 µM",23.2%
same,"viability, T/C","second compound 3.16 µM, first compound 0.001 µM",25.3%
same,"viability, T/C","second compound 3.16 µM, first compound 0.00316 µM",28.8%
same,"viability, T/C",[28],29.8%
same,"viability, T/C",[19],31.2%
same,"viability, T/C",[20],33.2%
same,"viability, T/C","second compound 10 µM, first compound 0.000316 µM",50.8%
same,"viability, T/C","second compound 10 µM, first compound 0.001 µM",75.5%
same,"viability, T/C","second compound 10 µM, first compound 0.00316 µM",82.6%
same,"viability, T/C",[29],88.3%
same,"viability, T/C",[30],91.5%
same,"viability, T/C",[31],85.5%
Cn1nccc1Nc1nccc(-c2cc3c(s2)C(C)(C)N(CCN2CCOCC2)C3=O)n1 + COc1cc2nc(C)nc(NC(C)c3cc(N)cc(C(F)(F)F)c3)c2cc1OC1CCOC1,pIC50,second compound 0.1 µM,7.19
same,pIC50,second compound 0.316 µM,7.26
same,pIC50,second compound 1 µM,7.33
same,pIC50,second compound 3.16 µM,7.49
same,pIC50,second compound 10 µM,> 7.50
same,"viability, T/C",[1],74.8%
same,"viability, T/C",[2],34.9%
same,"viability, T/C",[3],14.8%
same,"viability, T/C",[4],11.1%
same,"viability, T/C",[5],9.76%
same,"viability, T/C",[6],9.52%
same,"viability, T/C",[7],66.2%
same,"viability, T/C",[8],32.1%
same,"viability, T/C",[9],16.4%
same,"viability, T/C",[10],10.4%
same,"viability, T/C",[11],8.74%
same,"viability, T/C",[12],9.26%
same,"viability, T/C",[13],60.1%
same,"viability, T/C",[14],31.6%
same,"viability, T/C",[15],15.8%
same,"viability, T/C",[16],10.9%
same,"viability, T/C",[17],9.75%
same,"viability, T/C",[18],10.1%
same,"viability, T/C",[19],50.7%
same,"viability, T/C",[20],26.1%
same,"viability, T/C",[21],14.3%
same,"viability, T/C",[22],10.2%
same,"viability, T/C",[23],8.41%
same,"viability, T/C",[24],10.2%
same,"viability, T/C",[30],25.4%
same,"viability, T/C",[31],15.9%
same,"viability, T/C",[32],10.3%
same,"viability, T/C",[33],9.05%
same,"viability, T/C",[34],9.73%
same,"viability, T/C","second compound 10 µM, first compound 10 µM",7.56%
